# According to US10093642B2, “Multitarget hedgehog pathway inhibitors and uses thereof” (UNIVERSITA' DEGLI STUDI DI SIENA, priority 2013, dated 2018):
# Entries after “also recorded” stand apart in the source; their conditions may differ.
# Experiments:
# [1] = tested on: ASZ001 basal cell carcinoma cells; test: ASZ001 BCC cell growth, cell death and Gli1 mRNA; type: cell-based; settings: in vitro treatment
# Method: FIG. 15. Inhibition of Gli-dependent BCC tumor cell growth. ASZ001 BCC cells were treated with Glabrescione B (GlaB) 5 μM or DMSO only (A) or with Glabrescione B 1, 5 and 10 μM (GlaB) or DMSO only (B). After the indicated times, a trypan blue count was performed to determine the growth rate (A) or the percentage of cell death (B). (C) Gli1 mRNA expression levels were determined by qRT-PCR after treatment of ASZ001 BCC cells with Glabrescione B (GlaB) or DMSO only for the indicated times. Results are expressed in arbitrary units as relative quantification normalized with endogenous control β2-microglobulin and HPRT. […] Error bars indicate SD. *P<0.05 vs DMSO.
# Total RNA was isolated with Trizol (Invitrogen, Eugene, Or, USA) and reverse transcribed with Superscript II reverse transcriptase and random hexamers (Invitrogen, Eugene, Or, USA). Quantitative real-time PCR (qRT-PCR) analysis of Gli1, Gli2, Ptch1, Ptch2, Nanog, Oct-4, Cyclin D1, Cyclin D2, Nmyc, HIP1, Sfrp1, Bmp2, IGF2, β-2 microglobulin, HPRT, mRNA expression was performed on each cDNA sample using the ABI Prism 7900HT Sequence Detection System employing Assay-on-Demand Reagents (Applied Biosystems, Foster City, Calif., USA). […]
# [2] = tested on: Hh signaling in mouse cerebellar progenitors; test: Hh target mRNA in cerebellar progenitors of 6-day old mice after s.c. injection; type: in vivo, CD1 mice; settings: 100 μmol/Kg s.c. for 2 days
# Excerpt: To assess the in vivo activity of Glabrescione B, we first tested its ability to suppress Hh signaling in 6-day old mouse cerebellar progenitors, considered the cell of origin of MB. 6-day old CD1 mice were randomly divided into two groups (n=6) and injected s.c. with solvent only (2-hydroxypropyl-β-cyclodextrin:ethanol, 3:1) or Glabrescione B in solvent (100 μmol/Kg) for 2 days (2-hydroxypropyl-β-cyclodextrin was purchased from Sigma Aldrich, St. Louis, Mo., USA). Cerebella were collected and mRNA levels were determined by qRT-PCR.
# [3] = tested on: Hh pathway (Gli-RE reporter, activated by SMO agonist SAG); test: Gli-luciferase reporter assay in SAG-treated NIH 3T3 Shh-light II cells; type: cell-based
# Method: FIG. 4. Effect of active natural compounds identified by the pharmacophore screening in a luciferase assay, where the gene reporter was Gli1 and the pathway was activated by the SAG molecule, a potent SMO agonist. Natural compounds were tested at three different concentrations (1, 10 and 20 μM) and their activity was compared to that of cyclopamine, the natural compound reference inhibitor of the Hedgehog pathway, which was tested at the same doses (1, 10 and 20 μM). On both graphs the activity of cyclopamine is reported as reference standard. (A) cyclopamine, 2,4,5,3′,4′-penta-Ome chalcone and Auriculasin; (B) cyclopamine, Martinoside, Jaceidin, 2,4,5,3′,4′-penta-Ome chalcone, 3,4-di-MDO-2′,4′,5′-tri-Ome dihydrochalcone.
# FIG. 6. Dose-response curve of Glabrescione B in SAG (Smoothened Agonist, 200 nM) treated NIH 3T3 Shh-light II (Shh-LII) cells. Treatment time was 48 h and normalization was against Renilla luciferase. Shown is the fold increase of Hh reporter activity compared with cells not treated with SAG.
# FIG. 19. Effect of derivatives NT8, NT9, NT10, NT11, NT12, NT13, NT14 and NT15 on the Hedgehog pathway, measured at 5 μM dose in a luciferase assay where the gene reporter was Gli1 and the pathway was activated by the SAG molecule, a potent SMO agonist. […]
# To investigate the inhibitory properties of Glabrescione B on Hh signaling, the inventors examined its effects in NIH 3T3 Shh-light II (Shh-LII) cells stably incorporating an Hh-responsive (Gli-RE) reporter, in which induction of the pathway occurs following treatment with the SMO agonist SAG. […] The IC50 in this assay was 0.8 μM.
# The ability of Glabrescione B to suppress Hh signaling was assessed in a cellular context of Hh pathway induction. To this end, the antagonist properties of Glabrescione B were determined in Shh Light II (ATCC, cat. # CRL-2795), a murine fibroblast NIH 3T3 cell line. These cells, stably incorporating the Gli-luc reporter and the pRL-TK Renilla reniformis (as described in Taipale, Chen et al. 2000) are a standard tool used to assay Hh pathway activity. The cells that reached the confluence were treated for 48 h with the SMO agonist SAG (200 nM, Alexis, cat. #ALX-270-426-M001) in absence or in presence of Glabrescione B at the amount indicated in FIG. 6. […] Control cells were treated with only DMSO (0.5%, SERVA, cat. #39757.02) Determination of luciferase activities was carried out using the Dual-Luciferase assay according to manufacturer's instructions (Dual-Luciferase® Reporter assay system; Promega, cat. # E1980). All presented data are firefly luciferase activity reported to the Renilla control activity. […] IC50 of 0.8 μM, represents the concentration of Glabrescione B necessary to have fifty percent of inhibition.
# Evaluation of the Hh inhibitory activity of these molecules at 5 μM was preliminarily conducted in vitro on Shh Light II cells (see example 2).
# Jun/AP1activation = test: Selectivity: unrelated signal transduction pathway Jun/AP1 activation; type: cell-based
# [4] = tested on: Cancer stem cells (CSCs) isolated from murine Ptch+/− MB; test: Neurosphere forming assay (self-renewal of MB CSCs); type: cell-based; settings: seven days of treatment; KAAD 1 μM as comparator
# Method: FIG. 14. […] After seven days of treatment the number of secondary neurospheres derived from a known number of single cells was counted. The self-renewal CSCs capability is expressed as percentage of neurospheres forming cells.
# Hh activity preferentially associates to stemness features. For this reason, the Hh pathway antagonist Glabrescione B has also been investigated for its ability to modulate the behavior of MB cancer stem cells (CSCs).
# Another experiment was carried out to determine the ability of Glabrescione B to suppress MB CSCs self-renewal. To this aim neurospheres derived from murine Ptch^+/− MB were treated with Glabrescione B at different concentrations and the percentage of neurospheres-forming cells was measured. For the neurosphere forming assay, cells were plated at clonal density (1-2 cells/mm2) into 96-well plates and cultured in selective medium as described above.
# The results shown in FIG. 14 indicate that Glabrescione B has an inhibitory effect on self-renewal of cancer stem cells.
# [5] = tested on: HepG2 hepatocellular carcinoma cells; test: Effect on Hh-independent HepG2 cells; type: cell-based
compound,measurement,setting,value
"COc1cc(OC)c2c(=O)c(-c3ccc(OCC=C(C)C)c(OCC=C(C)C)c3)coc2c1 [Glabrescione B, 3-(3′,4′-bis(3-methylbut-2-enyloxy)phenyl)-5,7-dimethoxy-4H-chromen-4-one]",BCC cell proliferation,[1],impaired
same,Gli1 mRNA in BCC cells,[1]; qRT-PCR,suppression of Gli1 mRNA
same,cerebellar levels of Hh target genes (mRNA),[2],reduced significantly
same,effect on Hh pathway in luciferase assay,"[3]; Gli1 gene reporter, pathway activated by SAG, cyclopamine as reference",inhibit the Hh pathway; also recorded: most potent lead
same,IC50,"[3]; Mus musculus, SAG 200 nM, 48 h, normalized to Renilla, read-out: IC50 of luciferase reporter activity (Hh signaling)",800 nM
same,inhibition at 5 µM,"[3]; Mus musculus, at 5 μM, highly active class",> 50%
same,inhibition at 30 µM,Jun/AP1activation,0%
same,MB CSCs self-renewal (percentage of neurospheres-forming cells),[4],suppressive effect on MB CSCs self-renewal
same,effect on HepG2 cells,[5],no effect
